US20240287108A1, “nSMASE2 INHIBITOR PRODRUGS WITH ENHANCED ORAL AND BRAIN EXPOSURES” (The Johns Hopkins University, priority 2021, published 2024)
Blank lines part the entries; values can stand above or below the molecule they belong to.

Assays:
[1] = in vitro metabolic stability in mouse plasma (Example 1); assay type: in vitro ADME; details: 10 μM, 37° C.
Procedure: 1.2.1 In vitro metabolic stability assessment. In vitro metabolic stability assessment was performed using mouse plasma, and liver homogenates. For the liver homogenates, washed tissues were diluted 10-fold in 0.1 M potassium phosphate buffer and homogenized using a probe sonicator. To evaluate the stability of the intact prodrug over time, each of the tissue matrix were aliquoted to 1 mL and then spiked with 10 μM of corresponding prodrugs followed by incubation in an orbital shaker at 37° C. for 1 h (in triplicate). Sample from each incubation at predetermined time points (0 min, and 1 h) was quenched with three volumes of acetonitrile containing the internal standard (IS: losartan: 0.5 μm). Samples were vortex-mixed for 30 secs and centrifuged at 10,000 RPM for 10 min at 4° C. Disappearance of the intact compound was measured using liquid chromatography tandem mass spectrometry (LC-MS/MS). 1.2.2 In vivo pharmacokinetic studies in mice. Male CD-1 mice (n=3) were used to study the pharmacokinetic profiles of representive prodrug compounds. […] Blood and brain were collected after sacrificing the mice at predetermined time points. Plasma was harvested from blood by centrifugation at 3,000 RPM for 15 min and stored at −80° C. Brain tissues were harvested following blood collection and immediately snap frozen in liquid nitrogen and stored at −80° C. until LC-MS/MS analysis. […]

[2] = in vitro stability in CES1−/− mouse plasma; assay type: in vitro ADME; details: 10 μM
Procedure: All synthesized prodrugs were next screened for in vitro stability in carboxylesterase 1 knockout (CES1^−/−) mouse plasma, as well as CES1^−/− mouse brain and liver homogenates (Table 2-1). We have previously reported that CES1^−/− mouse model recapitulates human prodrug metabolism. Tenora et al., 2019.
(§1) Zimmermann et al., 2018. For the tissue homogenates, washed tissues were diluted 10-fold in 0.1 M potassium phosphate buffer and homogenized using a probe sonicator. To evaluate the stability of the intact prodrug over time, each of the crude homogenates and plasma were aliquoted to 1 mL and then spiked with a final assay concentration of 10 μM of each prodrug followed by incubation in an orbital shaker at 37° C. for 1 h (in triplicate). Sample from each incubation at predetermined time points (0 min, and 1 h) was quenched with three volumes of acetonitrile containing the internal standard (IS; losartan: 0.5 μm). Samples were vortex-mixed for 30 secs and centrifuged at 10,000×g for 10 min at 4° C. Disappearance of intact prodrugs from these samples were performed on a Dionex ultra-high-performance LC system coupled with Q Exactive Focus orbitrap mass spectrometer (Thermo Fisher Scientific Inc., Waltham MA). The separation of analytes was achieved using the Agilent Eclipse Plus column (100×2.1 mm i.d.; maintained at 35° C.) packed with a 1.8 μm C18 stationary phase. The mobile phase consisted of 0.1% formic acid in water and 0.1% formic acid in acetonitrile. Pumps were operated at a flow rate of 0.4 mL/min for 9 min using gradient elution. The mass spectrometer controlled by Xcalibur software 4.0.27.13 (Thermo Scientific) was operated with a heated electrospray ionization (HESI) ion source in positive ionization mode. Quantification of the prodrugs were performed in the full-scan mode (from m/z 50 to 1600) by comparing t=0 samples with t=60 min samples.

[3] = in vitro stability in CES1−/− mouse liver homogenates; assay type: in vitro ADME; details: CES1−/− mouse liver homogenate, 10 μM, 37° C.
Procedure: (§2) All synthesized prodrugs were next screened for in vitro stability in carboxylesterase 1 knockout (CES1^−/−) mouse plasma, as well as CES1^−/− mouse brain and liver homogenates (Table 2-1). We have previously reported that CES1^−/− mouse model recapitulates human prodrug metabolism.
as §1, with “For” for “Zimmermann et al., 2018. For”, “The separation of analytes was achieved using the Agilent Eclipse Plus column (100×2.1 mm i.d.; maintained at 35° C.) packed with a 1.8 μm C18 stationary phase.” left out

[4] = in vivo pharmacokinetic studies in mice (Example 1); parameters: species or system mouse; details: for AUC / MRT / half-life / Cmax: 10 mg/kg
Procedure: 1.2.1 In vitro metabolic stability assessment. In vitro metabolic stability assessment was performed using mouse plasma, and liver homogenates. For the liver homogenates, washed tissues were diluted 10-fold in 0.1 M potassium phosphate buffer and homogenized using a probe sonicator. To evaluate the stability of the intact prodrug over time, each of the tissue matrix were aliquoted to 1 mL and then spiked with 10 μM of corresponding prodrugs followed by incubation in an orbital shaker at 37° C. for 1 h (in triplicate). Sample from each incubation at predetermined time points (0 min, and 1 h) was quenched with three volumes of acetonitrile containing the internal standard (IS: losartan: 0.5 μm). Samples were vortex-mixed for 30 secs and centrifuged at 10,000 RPM for 10 min at 4° C. Disappearance of the intact compound was measured using liquid chromatography tandem mass spectrometry (LC-MS/MS). 1.2.2 In vivo pharmacokinetic studies in mice. Male CD-1 mice (n=3) were used to study the pharmacokinetic profiles of representive prodrug compounds. […] Blood and brain were collected after sacrificing the mice at predetermined time points. Plasma was harvested from blood by centrifugation at 3,000 RPM for 15 min and stored at −80° C. Brain tissues were harvested following blood collection and immediately snap frozen in liquid nitrogen and stored at −80° C. until LC-MS/MS analysis. […] Brain tissues were diluted 1:5 w/v with acetonitrile containing losartan (0.5 μm) and homogenized, followed by vortex-mixing and centrifugation at 10,000 RPM for 10 min at 4° C. A 50 μL aliquot of the supernatant was diluted with 50 μL of water and transferred to 250 μL polypropylene autosampler vials sealed with teflon caps. Then, 2 μL of the sample was injected into the LC-MS/MS system for analysis.

[5] = single time-point (2 h) oral pharmacokinetic screening in mice; assay type: in vivo, mouse; details: single time point PK, oral 10 mg/kg DPTIP equivalent
Procedure: (§3) All PK studies in mice were conducted according to protocols approved by the Animal Care and Use Committee at Johns Hopkins University. Male CD-1 mice between 25 and 30 g were obtained from Harlan and maintained on a 12 h light-dark cycle with ad libitum access to food and water. […] All of the formulations were freshly prepared prior to the dosing. The mice were sacrificed at specified time points (either 2 h or 0.25, 0.5, 1, 2, 4, 6, and 8 h) post drug administration. For the collection of plasma and brain tissue, animals were euthanized with CO2, and blood samples were collected in heparinized microtubes by cardiac puncture. Brains were dissected and immediately flash frozen (−80° C.) Blood samples were spun at 2000 g for 15 min, and plasma was removed and stored at −80° C. until LC-MS/MS analysis. Prior to extraction, frozen samples were thawed on ice.
Brain tissues were diluted 1:5 w/v with acetonitrile containing losartan (0.5 μm) and homogenized, followed by vortex-mixing and centrifugation at 10,000 g for 10 min at 4° C. […] Plasma concentrations (nmol/ml) as well as brain tissue concentrations (nmol/g) were determined and plots of mean plasma concentration versus time were constructed. Non-compartmental analysis modules in Phoenix WinNonlin version 7.0 (Certara USA, Inc., Princeton, NJ) were used to quantify exposures (AUC0-t).

[6] = time-dependent oral pharmacokinetics in mice; assay type: in vivo, mouse
Procedure: As described earlier, we identified P1 and P18 as the most promising candidates for time dependent PK.
as §3
Brain tissues were diluted 1:5 w/v with acetonitrile containing losartan (0.5 μm) and homogenized, followed by vortex-mixing and centrifugation at 10,000 g for 10 min at 4° C. A 50 μL aliquot of the supernatant were diluted with 50 uL of water and transferred to 250 μL polypropylene autosampler vials sealed with teflon caps. Then, 2 μL of the sample were injected into the LC/MS/MS system for analysis. Chromatographic analysis was performed using an Accela ultra-high-performance system consisting of an analytical pump and an autosampler coupled with a TSQ Vantage mass spectrometer. […] The mobile phase consisted of 0.1% formic acid in acetonitrile and 0.1% formic acid in water with gradient elution were used. […] Plasma concentrations (nmol/ml) as well as brain tissue concentrations (nmol/g) were determined and plots of mean plasma concentration versus time were constructed. Non-compartmental analysis modules in Phoenix WinNonlin version 7.0 (Certara USA, Inc., Princeton, NJ) were used to quantify exposures (AUC0-t).

[7] = in vitro stability in CES1−/− mouse brain homogenates; assay type: in vitro ADME; details: CES1−/− mouse brain homogenate, 10 μM, 37° C.
Procedure: as §2
as §1, with “For” for “Zimmermann et al., 2018. For”, “The separation of analytes was achieved using the Agilent Eclipse Plus column (100×2.1 mm i.d.; maintained at 35° C.) packed with a 1.8 μm C18 stationary phase.” left out

[8] = dog plasma pharmacokinetics; assay type: in vivo; details: IV 2 mg/kg
EV release = details: previously reported; in vitro (b234 also in vivo when delivered systemically); cited from earlier work
[9] = previously reported pharmacokinetics; cited from earlier work
[10] = male, CD-1, mouse, in vivo, po, intact prodrug, brain, mice, 10 mg/kg eqv
[11] = male, CD-1, mouse, in vivo, po, intact prodrug, plasma, mice, 10 mg/kg eqv

Compound: COc1cc(-c2nc(-c3ccccc3)c(-c3cccs3)[nH]2)cc(OC)c1OC(=O)C1=CN(C)C=CC1 [Compound P17, 2,6-Dimethoxy-4-(4-phenyl-5-(thiophen-2-yl)-1H-imidazol-2-yl)phenyl 1-methyl-1,4-dihydropyridine-3-carboxylate]
- intact prodrug remaining after 1 hour of incubation [1]: approximately 50%
- Stability in mouse (% remaining at 1h) Mean + Std Error, Plasma ([2]; CES1−/− mouse plasma, 37° C.): 52 ± 2%
- Stability in mouse (% remaining at 1h) Mean + Std Error, Liver [3]: 22 ± 1%

Compound: COc1cc(-c2nc(-c3ccccc3)c(-c3cccs3)[nH]2)cc(OC)c1OC(=O)N1CCC(N2CCCCC2)CC1 [Compound P1, 2,6-Dimethoxy-4-(4-phenyl-5-(thiophen-2-yl)-1H-imidazol-2-yl)phenyl[1,4′-bipiperidine]-1′-carboxylate]
- Stability in mouse (% remaining at 1h) Mean + Std Error, Plasma ([2]; CES1−/− mouse plasma, 37° C.): 90 ± 2%
- Stability in mouse (% remaining at 1h) Mean + Std Error, Liver [3]: 85 ± 3%
- AUC [4, 10]: 0.477 µM·h
- MRT [4, 10]: 2.12 h
- half-life [4, 10]: 4.37 h
- Cmax ([4]; male, CD-1, mouse, in vivo, po, intact prodrug, brain, mice, 10 mg/kg eqv, read-out: Cmax): 106 ± 11.6 nM
- AUC [4, 11]: 0.805 µM·h
- MRT [4, 11]: 3.39 h
- half-life [4, 11]: 2.45 h
- Cmax ([4]; male, CD-1, mouse, in vivo, po, intact prodrug, plasma, mice, 10 mg/kg eqv, read-out: Cmax): 546 ± 25.8 nM
- Tmax [4, 11]: 1 h
- Kp ([4]; male, CD-1, mouse, in vivo, intact prodrug, mice, 10 mg/kg eqv, read-out: Brain:Plasma ratio): 0.6
- improvement of brain and plasma levels of DPTIP and/or its brain penetration index compared with DPTIP [5]: highest improvement
- plasma exposure of the intact compound (AUC0-t) ([6]; oral 10 mg/kg DPTIP equivalent): 0.8299 µM·h
- conversion of prodrug to DPTIP in vivo ([6]; oral 10 mg/kg DPTIP equivalent (P18: in the brain)): about 40%

- Stability in mouse (% remaining at 1h) Mean + Std Error, Plasma ([2]; CES1−/− (carboxylesterase 1 knockout), mouse, plasma): 103 ± 2%
- Stability in mouse (% remaining at 1h) Mean + Std Error, Liver [3]: 98 ± 6%
- Stability in mouse (% remaining at 1h) Mean + Std Error, Brain [7]: 89 ± 4%
- Cmax ([4]; male, CD-1, mouse, plasma, po): 400 nM
- brain levels of DPTIP ([4]; mice, oral 10 mg/kg DPTIP equivalent): 50 nM
- AUC [8]: 7.47 µM·h
- Cmax [8]: 5500 nM
Compound: COc1cc(-c2nc(-c3cccs3)c(-c3ccccc3)[nH]2)cc(OC)c1O [DPTIP, 2,6-dimethoxy-4-(5-phenyl-4-(thiophen-2-yl)-1H-imidazol-2-yl) phenol, reference compound]
- inhibition of EV release (EV release): dose-dependently inhibiting EV release in vitro and in vivo
- t1/2 (rapid clearance) of DPTIP [9]: < 0.5 h
